Values joined by “and” are separate entries in the source; they are usually repeats but may differ in a detail not shown here. Equal entries are not always repeated.
Tests used:
SfurOBP1 = SfurOBP1 (Sogatella furcifera, UniProt V5T8N5); test: biochemical; type: binding; settings: for Fluorescence competitive binding assay, fluorescence intensity: OBP1, three replicate columns
Method in brief: (§1)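 Fluorescence competitive binding used 2.0 µM SfurOBP and 2.0 µM 1-NPN reporter in 50 mM Tris-HCl, pH 7.4, with odorants at 2-20 µM. Fluorescence was read 2 min after adding the odorant (excitation 337 nm, emission 390-490 nm), in triplicate. Ki was calculated from IC50 as IC50/(1 + [1-NPN]/K1-NPN).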

SfurOBP11 = SfurOBP11 (Sogatella furcifera, UniProt V5T6E3); test: biochemical; type: binding
Chain of SfurOBP11 (V5T6E3 entry or part of it): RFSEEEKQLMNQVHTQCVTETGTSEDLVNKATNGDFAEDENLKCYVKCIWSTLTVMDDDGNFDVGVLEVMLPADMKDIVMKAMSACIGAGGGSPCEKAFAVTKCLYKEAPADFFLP
Method in brief: as §1

SfurOBP2 = SfurOBP2 (Sogatella furcifera, UniProt V5T759); test: biochemical; type: binding
Chain of SfurOBP2 (V5T759 entry or part of it): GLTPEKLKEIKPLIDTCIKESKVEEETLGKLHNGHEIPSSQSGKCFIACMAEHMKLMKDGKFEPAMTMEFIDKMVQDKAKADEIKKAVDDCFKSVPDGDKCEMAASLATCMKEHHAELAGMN
Method in brief: as §1

SfurOBP3 = SfurOBP3 (Sogatella furcifera, UniProt V5T818); test: biochemical; type: binding; settings: for Fluorescence competitive binding assay, fluorescence intensity: OBP3, three replicate columns
Chain of SfurOBP3 (V5T818 entry or part of it): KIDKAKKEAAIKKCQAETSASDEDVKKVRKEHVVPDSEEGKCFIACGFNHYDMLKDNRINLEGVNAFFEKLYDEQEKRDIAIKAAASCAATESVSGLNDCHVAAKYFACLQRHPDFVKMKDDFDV
Method in brief: as §1

S. furcifera adults = test: Y-tube olfactometer behavioral trials; type: in vivo, Sogatella furcifera; settings: odorant 50 µL/L vs hexane
Method in brief: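 Single S. furcifera adults (2 days post-emergence, starved 0.5 h) chose between odorant (100 µL of 50 µL/L on filter paper) and hexane control in a glass Y-tube, charcoal-filtered humidified air 300 mL/min per arm, 25 ± 1 °C, 50% RH. Choice scored if insect passed half an arm and stayed >1 min within 10 min; 45 insects per compound, chi-squared test.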

Chain of SfurOBP1 (V5T8N5 entry or part of it): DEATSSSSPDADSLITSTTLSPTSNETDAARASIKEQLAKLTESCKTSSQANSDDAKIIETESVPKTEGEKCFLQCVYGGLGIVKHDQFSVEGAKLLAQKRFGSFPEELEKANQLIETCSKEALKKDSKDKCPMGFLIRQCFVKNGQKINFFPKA

SMILES: CCCCCCCC [n-octane]
- Fluorescence competitive binding assay, fluorescence intensity (SfurOBP1; ligand concentration 2 (μM)): 5925 and 7991 and 7456
- Fluorescence competitive binding assay, fluorescence intensity (SfurOBP1; ligand concentration 4 (μM)): 8340 and 7163 and 7902
- Fluorescence competitive binding assay, fluorescence intensity (SfurOBP1; ligand concentration 6 (μM)): 8616 and 7456 and 8995
- Fluorescence competitive binding assay, fluorescence intensity (SfurOBP1; ligand concentration 8 (μM)): 8020 and 7176 and 8029
- Fluorescence competitive binding assay, fluorescence intensity (SfurOBP1; ligand concentration 10 (μM)): 7070 and 8613 and 8224
- Fluorescence competitive binding assay, fluorescence intensity (SfurOBP1; ligand concentration 12 (μM)): 6680 and 8217 and 6786
- Fluorescence competitive binding assay, fluorescence intensity (SfurOBP1; ligand concentration 14 (μM)): 7048 and 6801 and 7552
- Fluorescence competitive binding assay, fluorescence intensity (SfurOBP1; ligand concentration 16 (μM)): 6817 and 7163 and 7002
- Fluorescence competitive binding assay, fluorescence intensity (SfurOBP1; ligand concentration 18 (μM)): 8094 and 8514 and 8878
- Fluorescence competitive binding assay, fluorescence intensity (SfurOBP1; ligand concentration 20 (μM)): 7869 and 7702 and 8440
- IC50 (SfurOBP1; SfurOBP1, protein and 1-NPN both 2.0 µM, competitor 2-20 µM, read-out: IC50): > 20 µM
- IC50 (SfurOBP11; SfurOBP11, protein and 1-NPN both 2.0 µM, competitor 2-20 µM, read-out: IC50): > 20 µM
- Fluorescence intensity, fluorescence competitive binding assay, OBP11 (SfurOBP11; ligand concentration 2, replicate 1): 29315
- Fluorescence intensity, fluorescence competitive binding assay, OBP11 (SfurOBP11; ligand concentration 2, replicate 2): 29331
- Fluorescence intensity, fluorescence competitive binding assay, OBP11 (SfurOBP11; ligand concentration 2, replicate 3): 31569
- Fluorescence intensity, fluorescence competitive binding assay, OBP11 (SfurOBP11; ligand concentration 4, replicate 1): 28278
- Fluorescence intensity, fluorescence competitive binding assay, OBP11 (SfurOBP11; ligand concentration 4, replicate 2): 30015
- Fluorescence intensity, fluorescence competitive binding assay, OBP11 (SfurOBP11; ligand concentration 4, replicate 3): 31065
- Fluorescence intensity, fluorescence competitive binding assay, OBP11 (SfurOBP11; ligand concentration 6, replicate 1): 29774
- Fluorescence intensity, fluorescence competitive binding assay, OBP11 (SfurOBP11; ligand concentration 6, replicate 2): 29054
- Fluorescence intensity, fluorescence competitive binding assay, OBP11 (SfurOBP11; ligand concentration 6, replicate 3): 29894
- Fluorescence intensity, fluorescence competitive binding assay, OBP11 (SfurOBP11; ligand concentration 8, replicate 1): 27943
- Fluorescence intensity, fluorescence competitive binding assay, OBP11 (SfurOBP11; ligand concentration 8, replicate 2): 28064
- Fluorescence intensity, fluorescence competitive binding assay, OBP11 (SfurOBP11; ligand concentration 8, replicate 3): 27821
- Fluorescence intensity, fluorescence competitive binding assay, OBP11 (SfurOBP11; ligand concentration 10, replicate 1): 27525
- Fluorescence intensity, fluorescence competitive binding assay, OBP11 (SfurOBP11; ligand concentration 10, replicate 2): 26078
- Fluorescence intensity, fluorescence competitive binding assay, OBP11 (SfurOBP11; ligand concentration 10, replicate 3): 27163
- Fluorescence intensity, fluorescence competitive binding assay, OBP11 (SfurOBP11; ligand concentration 12, replicate 1): 24273
- Fluorescence intensity, fluorescence competitive binding assay, OBP11 (SfurOBP11; ligand concentration 12, replicate 2): 26556
- Fluorescence intensity, fluorescence competitive binding assay, OBP11 (SfurOBP11; ligand concentration 12, replicate 3): 26721
- Fluorescence intensity, fluorescence competitive binding assay, OBP11 (SfurOBP11; ligand concentration 14, replicate 1): 22920
- Fluorescence intensity, fluorescence competitive binding assay, OBP11 (SfurOBP11; ligand concentration 14, replicate 2): 23793
- Fluorescence intensity, fluorescence competitive binding assay, OBP11 (SfurOBP11; ligand concentration 14, replicate 3): 23357
- Fluorescence intensity, fluorescence competitive binding assay, OBP11 (SfurOBP11; ligand concentration 16, replicate 1): 19613
- Fluorescence intensity, fluorescence competitive binding assay, OBP11 (SfurOBP11; ligand concentration 16, replicate 2): 20535
- Fluorescence intensity, fluorescence competitive binding assay, OBP11 (SfurOBP11; ligand concentration 16, replicate 3): 20285
- Fluorescence intensity, fluorescence competitive binding assay, OBP11 (SfurOBP11; ligand concentration 18, replicate 1): 26966
- Fluorescence intensity, fluorescence competitive binding assay, OBP11 (SfurOBP11; ligand concentration 18, replicate 2): 26281
- Fluorescence intensity, fluorescence competitive binding assay, OBP11 (SfurOBP11; ligand concentration 18, replicate 3): 26291
- Fluorescence intensity, fluorescence competitive binding assay, OBP11 (SfurOBP11; ligand concentration 20, replicate 1): 26611
- Fluorescence intensity, fluorescence competitive binding assay, OBP11 (SfurOBP11; ligand concentration 20, replicate 2): 26798
- Fluorescence intensity, fluorescence competitive binding assay, OBP11 (SfurOBP11; ligand concentration 20, replicate 3): 25454
- IC50 (SfurOBP2; SfurOBP2, protein and 1-NPN both 2.0 µM, competitor 2-20 µM, read-out: IC50): 19.9 µM
- Fluorescence competitive binding assay, OBP2 (raw fluorescence reading) (SfurOBP2; ligand concentration 2 (unit not given), replicate column 1 of 3): 18817
- Fluorescence competitive binding assay, OBP2 (raw fluorescence reading) (SfurOBP2; ligand concentration 2 (unit not given), replicate column 2 of 3): 16925
- Fluorescence competitive binding assay, OBP2 (raw fluorescence reading) (SfurOBP2; ligand concentration 2 (unit not given), replicate column 3 of 3): 16813
- Fluorescence competitive binding assay, OBP2 (raw fluorescence reading) (SfurOBP2; ligand concentration 4 (unit not given), replicate column 1 of 3): 17604
- Fluorescence competitive binding assay, OBP2 (raw fluorescence reading) (SfurOBP2; ligand concentration 4 (unit not given), replicate column 2 of 3): 17269
- Fluorescence competitive binding assay, OBP2 (raw fluorescence reading) (SfurOBP2; ligand concentration 4 (unit not given), replicate column 3 of 3): 15635
- Fluorescence competitive binding assay, OBP2 (raw fluorescence reading) (SfurOBP2; ligand concentration 6 (unit not given), replicate column 1 of 3): 16307
- Fluorescence competitive binding assay, OBP2 (raw fluorescence reading) (SfurOBP2; ligand concentration 6 (unit not given), replicate column 2 of 3): 16391
- Fluorescence competitive binding assay, OBP2 (raw fluorescence reading) (SfurOBP2; ligand concentration 6 (unit not given), replicate column 3 of 3): 15566
- Fluorescence competitive binding assay, OBP2 (raw fluorescence reading) (SfurOBP2; ligand concentration 8 (unit not given), replicate column 1 of 3): 15494
- Fluorescence competitive binding assay, OBP2 (raw fluorescence reading) (SfurOBP2; ligand concentration 8 (unit not given), replicate column 2 of 3): 15122
- Fluorescence competitive binding assay, OBP2 (raw fluorescence reading) (SfurOBP2; ligand concentration 8 (unit not given), replicate column 3 of 3): 16014
- Fluorescence competitive binding assay, OBP2 (raw fluorescence reading) (SfurOBP2; ligand concentration 10 (unit not given), replicate column 1 of 3): 15063
- Fluorescence competitive binding assay, OBP2 (raw fluorescence reading) (SfurOBP2; ligand concentration 10 (unit not given), replicate column 2 of 3): 14978
- Fluorescence competitive binding assay, OBP2 (raw fluorescence reading) (SfurOBP2; ligand concentration 10 (unit not given), replicate column 3 of 3): 15010
- Fluorescence competitive binding assay, OBP2 (raw fluorescence reading) (SfurOBP2; ligand concentration 12 (unit not given), replicate column 1 of 3): 12606
- Fluorescence competitive binding assay, OBP2 (raw fluorescence reading) (SfurOBP2; ligand concentration 12 (unit not given), replicate column 2 of 3): 12327
- Fluorescence competitive binding assay, OBP2 (raw fluorescence reading) (SfurOBP2; ligand concentration 12 (unit not given), replicate column 3 of 3): 12885
- Fluorescence competitive binding assay, OBP2 (raw fluorescence reading) (SfurOBP2; ligand concentration 14 (unit not given), replicate column 1 of 3): 12907
- Fluorescence competitive binding assay, OBP2 (raw fluorescence reading) (SfurOBP2; ligand concentration 14 (unit not given), replicate column 2 of 3): 11889
- Fluorescence competitive binding assay, OBP2 (raw fluorescence reading) (SfurOBP2; ligand concentration 14 (unit not given), replicate column 3 of 3): 12746
- Fluorescence competitive binding assay, OBP2 (raw fluorescence reading) (SfurOBP2; ligand concentration 16 (unit not given), replicate column 1 of 3): 11757
- Fluorescence competitive binding assay, OBP2 (raw fluorescence reading) (SfurOBP2; ligand concentration 16 (unit not given), replicate column 2 of 3): 11955
- Fluorescence competitive binding assay, OBP2 (raw fluorescence reading) (SfurOBP2; ligand concentration 16 (unit not given), replicate column 3 of 3): 11106
- Fluorescence competitive binding assay, OBP2 (raw fluorescence reading) (SfurOBP2; ligand concentration 18 (unit not given), replicate column 1 of 3): 11096
- Fluorescence competitive binding assay, OBP2 (raw fluorescence reading) (SfurOBP2; ligand concentration 18 (unit not given), replicate column 2 of 3): 11451
- Fluorescence competitive binding assay, OBP2 (raw fluorescence reading) (SfurOBP2; ligand concentration 18 (unit not given), replicate column 3 of 3): 11415
- Fluorescence competitive binding assay, OBP2 (raw fluorescence reading) (SfurOBP2; ligand concentration 20 (unit not given), replicate column 1 of 3): 12132
- Fluorescence competitive binding assay, OBP2 (raw fluorescence reading) (SfurOBP2; ligand concentration 20 (unit not given), replicate column 2 of 3): 10679
- Fluorescence competitive binding assay, OBP2 (raw fluorescence reading) (SfurOBP2; ligand concentration 20 (unit not given), replicate column 3 of 3): 10932
- Fluorescence competitive binding assay, fluorescence intensity (SfurOBP3; ligand concentration 2): 68170 and 67677 and 64610
- Fluorescence competitive binding assay, fluorescence intensity (SfurOBP3; ligand concentration 4): 67293 and 62720 and 65655
- Fluorescence competitive binding assay, fluorescence intensity (SfurOBP3; ligand concentration 6): 76553 and 64631 and 57162
- Fluorescence competitive binding assay, fluorescence intensity (SfurOBP3; ligand concentration 8): 71829 and 61798 and 56284
- Fluorescence competitive binding assay, fluorescence intensity (SfurOBP3; ligand concentration 10): 59554 and 55292 and 53530
- Fluorescence competitive binding assay, fluorescence intensity (SfurOBP3; ligand concentration 12): 55099 and 48687 and 52349
- Fluorescence competitive binding assay, fluorescence intensity (SfurOBP3; ligand concentration 14): 54529 and 46904 and 51749
- Fluorescence competitive binding assay, fluorescence intensity (SfurOBP3; ligand concentration 16): 48833 and 47113 and 45049
- Fluorescence competitive binding assay, fluorescence intensity (SfurOBP3; ligand concentration 18): 45841 and 47813 and 46502
- Fluorescence competitive binding assay, fluorescence intensity (SfurOBP3; ligand concentration 20): 46899 and 47179 and 42858
- IC50 (SfurOBP3; SfurOBP3, protein and 1-NPN both 2.0 µM, competitor 2-20 µM, read-out: IC50): > 20 µM
- behavioral response of S. furcifera (in words) (S. furcifera adults): significantly repelled
- number of insects choosing hexane arm (S. furcifera adults; adults): 19
- number of insects choosing volatilies arm (S. furcifera adults; adults): 10
- number of insects failed (no choice) (S. furcifera adults; adults): 11
